Here are results for one substance from US20170198011A1, “COMPOSITION FOR TREATING SEPSIS OR SEPTIC SHOCK COMPRISING THE PEPTIDE ORIGINATED FROM THE SMAD6” (Medpacto, Inc., priority 2011, published 2017).

Where no end group is shown, it is not given here. The star is where a group is joined. Palmitoyl = CCCCCCCCCCCCCCCC(=O)*

In one assay the test system is NF-κB. The assay is described as follows: NF-κB-mediated downstream signaling in LPS-stimulated RAW264.7 cells (luciferase, immunoblots). The class given is cell-based, mouse. The protocol: FIG. 4B is a graph showing luciferase activity in RAW264.7 cells transfected with a 5×NF-κB-Luc plasmid after treatment with scrambled peptides (Pal-Scram; 100 nM) or Smaducin-6 and then with LPS,

The subject of assay [1] is lung, liver and spleen of CLP mice. Description: Hematoxylin-eosin staining of tissues of CLP mice. The class given is in vivo, BALB/c mice. Conditions: 16 mg/kg, compared to control. The protocol:
For use in assay for therapeutic effects of Smaducin-6 on sepsis, BALB/c mice were subjected to CLP (cecal ligation puncture) to prepare suitable animal models of clinical sepsis. Two hours after CLP operation on the mice, Smaducin-6 was subcutaneously injected at a dose of 8 mg/kg, 12 mg/kg, or 16 mg/kg to the mice, and then three more times at regular intervals of 12 hrs. […] In this context, Smaducin-6 was initially injected at a dose of 16 mg/kg 2, 4, or 10 hrs after CLP operation, and then three more times at regular intervals of 12 hrs. Further, cells from various tissues of CLP mice were stained with hematoxylin-eosin to observe nucleus and cell morphology.

For assay [2], the system named is BALB/c mice with LPS-induced septic shock. Description: Survival of mice with LPS-induced septic shock. The class given is in vivo. The note with it: LPS 60 mg/kg intraperitoneal, 16 mg/kg injected four times every 12 hrs from 2 hrs after LPS. Here is the method: FIG. 5D is a graph showing survival rates of BALB/c mice treated with 16 mg/kg Smaducin-6 or scrambled peptides after septic shock is induced by LPS;
Moreover, therapeutic effects of Smaducin-6 were examined in animal models of septic shock as well as CLP-induced sepsis. In this regard, LPS was intraperitoneally injected at a dose of 60 mg/kg into BALB/c mice, and from two hrs after LPS injection, Smaducin-6 was injected four times at regular intervals of 12 hrs into the mice.

In another assay the test system is neutrophils. The assay is described as follows: Peritoneal neutrophil migration in LPS septic shock mice. The class given is in vivo, BALB/c mice. Conditions: LPS 60 mg/kg, injected 2 and 14 hrs after, neutrophils isolated at 24 hrs. From the text: FIG. 7B is a graph showing neutrophil counts in the peritoneal fluid taken from BALB/c mice with LPS-induced septic shock at 24 hrs after LPS injection,
In mice with CLP-induced sepsis, the bacterial clearance of Smaducin-6 was examined. Smaducin-6 or the scrambled peptides were subcutaneously injected into CLP mice from which peritoneal fluid was then extracted from the mice, and bacteria in the fluid was counted. […] An examination was made to see whether this bacterial clearance of Smaducin-6 was attributed to the intraperitoneal migration of neutrophils. To this end, 2 and 14 hrs after induction of septic shock by injecting 60 mg/kg of LPS, Smaducin-6 or the scrambled peptides were injected into septic shock mice, and 24 hrs after the induction of septic shock, neutrophils were isolated from the peritoneal cavity using Histopaque-1077 (Sigma). Mouse neutrophils were counted using Trypan Blue (Sigma).

The test system of a further assay is CXCR2. The assay is described as follows: CXCR2 surface expression on human neutrophils by FACS. In kind it is cell-based. Conditions: 100 nM for 2 hrs, then LPS 2 hrs. The protocol:
FIG. 7C is a graph showing expression levels of CXCR2 on the surface of human neutrophils treated for 2 hrs with 100 nM scrambled peptides or Smaducin-6 and then for 2 hrs with LPS, as analyzed by FACS, and
To investigate the mechanism in which Smaducin-6 promotes peritoneal neutrophil migration, human neutrophils were treated for 2 hrs with 100 nM scrambled peptides or Smaducin-6 in advance of LPS treatment for 2 hrs. The expression of CXCR2, a chemokine receptor related with neutrophil migration, on the cell surface was analyzed using flow cytometry (FACS). Human neutrophils were isolated from normal human peripheral blood using Histopaque-1077 (Sigma) over a density gradient under the permission of the […] of Ajou University, School of Medicine (Suwon, Korea).

The subject of assay [3] is GRK2. The assay is described as follows: LPS-induced GRK2 expression in human neutrophils (immunoblot). Conditions: 100 nM for 2 hrs, then LPS 2 hrs. In kind it is cell-based. Here is the method:
(§1) To examine how Smaducin-6 interrupts with the LPS-induced downregulation of CXCR2, the levels of G-protein-coupled receptor kinase 2 (GRK2) in human neutrophils and RAW264.7 macrophages were measured. GRK2 is upregualted by LPS, which is known to suppress the expression of CXCR2.

Assay [4] concerns GRK2. The assay is described as follows: LPS-induced GRK2 expression in RAW264.7 macrophages (immunoblot). In kind it is cell-based, mouse. The note with it: RAW264.7 cells, 100 nM for 2 hrs, then LPS 2 hrs. Here is the method: as §1
Assay [5] has as its system TUNEL-positive cells in the spleen. The assay is described as follows: TUNEL assay of spleen of mice with CLP-induced sepsis. The note with it: injected 2 and 14 hrs after CLP, spleen at 24 hrs. In kind it is in vivo. The protocol:
An examination was made to see whether Smaducin-6 suppresses apoptosis in mice with CLP-induced sepsis. The scrambled peptides or the Smaducin-6 peptide was injected into mice suffering from CLP-induced sepsis from which the spleen was then excised. Smaducin-6 was assayed for anti-apototic activity using the TUNEL method. The expression level of caspase-3, involved in apoptosis, was also determined using an immunohistochemical assay.

The next assay concerns IFN-β1. The assay is described as follows: IFN-β1 in peritoneal fluid (ELISA) and splenocytes (FACS) of CLP mice. The class given is in vivo. The note with it: injected 2 and 14 hrs after CLP. An excerpt:
FIG. 8C is a graph showing levels of the IFN-β1cytokine in peritoneal fluid from mice subcutaneously injected with Smaducin-6 or scrambled peptides at 2 and 14 hrs after sepsis induction by CLP, as analyzed by ELISA, the peritoneal fluid being taken 24 hrs after CLP induction,
FIG. 8D is a graph showing expression levels of IFN-β1 in splenocytes of mice subcutaneously injected with Smaducin-6 or scrambled peptides at 2 and 14 hrs after sepsis induction by CLP, as measured by FACS, the splenocytes being taken 24 hrs after sepsis induction,
To analysis the mechanism of the anti-apoptotic activity of Smaducin-6, an examination was made of the IFN-β1-induced TRAIL expression. In this regard, 2 and 14 hrs after CLP, the scrambled peptides or the Smaducin-6 peptide was injected to the mice, and the expression of IFN-β1 in the peritoneal fluid from the mice was analyzed using ELISA in the same manner as in Example 6. In splenocytes from each mouse group, the expression level of IFN-β1 was determined using flow cytometry (FACS). For flow cytometry, IFN-β1 was detected by FITC-conjugated anti-mouse IFN-β antibody (22400-3, interferon source), and stained before data analysis using CellQuest Pro software (BD Bioscience).

In the next assay the test system is TRAIL. Description: TRAIL expression in splenocytes of CLP mice (flow cytometry, immunohistochemistry). In kind it is in vivo. The note with it: sepsis mice, flow cytometry and immunohistochemistry. From the text: FIG. 8E is a graph showing expression levels of TRAIL in splenocytes of mice subcutaneously injected with Smaducin-6 or scrambled peptides at 2 and 14 hrs after sepsis induction by CLP, as measured by FACS, the splenocytes being taken 24 hrs after sepsis induction, and
Also, the effect of Smaducin-6 on the expression of TRAIL in mice with CLP-induced sepsis was examined. Splenocytes from the mice were subjected to flow cytometry and immunohistochemistry for TRAIL in the same manner as in Examples 8B and 8D. In this context, rabbit antibody TRAIL (C92B9, cell signaling), and FITC-conjugated goat antibody to […] (NOVUS) were used as a primary and a secondary antibody, respectively.

For “Smaducin-6: palmitic acid conjugated to N-terminus of the 20-amino-acid peptide of Smad6 position 422 to 441, GGRALVVRKVPPGYSIKVFD (SEQ ID NO: 1) (Palmitoyl-GGRALVVRKVPPGYSIKVFD)”, the “NF-κB-mediated luciferase gene expression” value in the assay on NF-κB (5xNF-κB-Luc) is reported as “suppress”. For the same substance, in the assay on NF-κB (immunoblot), the IKKα/β phosphorylation entry is given as “suppress” and the IκBα degradation entry is reported as “suppress”. The “morphology of cells and tissues of the lung, the liver and the spleen” value in assay [1] is on record as “morphologically restored”. Besides, the “survival in LPS-induced septic shock” value in [2] was “therapeutic”. Further, the “migration of neutrophils to the peritoneal cavity” value in the assay with neutrophils is given as “increased”. Further, the “expression of CXCR2 on the cell surface” value in the assay with CXCR2 is listed as “kept the expression of CXCR2 at a normal level”. In addition, the “LPS-induced GRK2 expression” value in the assay with GRK2 [3] was “downregualed”. Moreover, the “LPS-induced GRK2 expression” value in the assay on GRK2 [4] is listed as “downregualed”. In addition, in assay [5], the “level of TUNEL-positive cells in the spleen” value is listed as “significantly reduced”. In addition, the “production of IFN-β1 in peritoneal fluid” value in the assay with IFN-β1 (ELISA (FIG. 8C)) is “inhibited”. Moreover, the “expression level of IFN-β1 in splenocytes” value with IFN-β1 (FACS (FIG. 8D)) is recorded as “inhibited”. In the assay on TRAIL, the “TRAIL expression in splenocytes” value is listed as “reduced”.
